According to the supplement of paper PMC11451515:

Test system: NOMO1
Experiment: cell viability relative to DMSO control; higher = less cytotoxic
Conditions: 48 h
Summary of the method: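 NOMO1, SEM and P12-Ichikawa leukemia cells spent at least four passages adapting to each medium before use. They were seeded at 500 cells/well (NOMO1, SEM) or 1000 cells/well (P12-Ichikawa) in 5 μl in 1536-well plates and pin-dosed with library compounds in DMSO at 11 threefold steps from 47 μM down to 0.79 nM. After 48 h at 37°C, CellTiter-Glo One luminescence was read. Viability is reported as a percentage of the DMSO wells on each plate, with cell-free wells as background.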

[1] = RPMI 5 mM glucose + 10% FBS, 0.000781 µM
[2] = RPMI 5 mM glucose + 10% FBS, 0.00234 µM
[3] = RPMI 5 mM glucose + 10% FBS, 0.00702 µM
[4] = RPMI 5 mM glucose + 10% FBS, 0.0211 µM
[5] = RPMI 5 mM glucose + 10% FBS, 0.0632 µM
[6] = RPMI 5 mM glucose + 10% FBS, 0.19 µM
[7] = RPMI 5 mM glucose + 10% FBS, 0.569 µM
[8] = RPMI 5 mM glucose + 10% FBS, 1.71 µM
[9] = RPMI 5 mM glucose + 10% FBS, 5.12 µM
[10] = RPMI 5 mM glucose + 10% FBS, 15.4 µM
[11] = RPMI 5 mM glucose + 10% FBS, 46.1 µM
[12] = RPMI 5 mM glucose + 10% dialyzed FBS, 0.000781 µM
[13] = RPMI 5 mM glucose + 10% dialyzed FBS, 0.00234 µM
[14] = RPMI 5 mM glucose + 10% dialyzed FBS, 0.00702 µM
[15] = RPMI 5 mM glucose + 10% dialyzed FBS, 0.0211 µM
[16] = RPMI 5 mM glucose + 10% dialyzed FBS, 0.0632 µM
[17] = RPMI 5 mM glucose + 10% dialyzed FBS, 0.19 µM
[18] = RPMI 5 mM glucose + 10% dialyzed FBS, 0.569 µM
[19] = RPMI 5 mM glucose + 10% dialyzed FBS, 1.71 µM
[20] = RPMI 5 mM glucose + 10% dialyzed FBS, 5.12 µM
[21] = RPMI 5 mM glucose + 10% dialyzed FBS, 15.4 µM
[22] = RPMI 5 mM glucose + 10% dialyzed FBS, 46.1 µM
[23] = HPLM + 10% dialyzed FBS, 0.000781 µM
[24] = HPLM + 10% dialyzed FBS, 0.00234 µM
[25] = HPLM + 10% dialyzed FBS, 0.00702 µM
[26] = HPLM + 10% dialyzed FBS, 0.0211 µM
[27] = HPLM + 10% dialyzed FBS, 0.0632 µM
[28] = HPLM + 10% dialyzed FBS, 0.19 µM
[29] = HPLM + 10% dialyzed FBS, 0.569 µM
[30] = HPLM + 10% dialyzed FBS, 1.71 µM
[31] = HPLM + 10% dialyzed FBS, 5.12 µM
[32] = HPLM + 10% dialyzed FBS, 15.4 µM
[33] = HPLM + 10% dialyzed FBS, 46.1 µM

Structure (SMILES) | cell viability [1] [%] | cell viability [2] [%] | cell viability [3] [%] | cell viability [4] [%] | cell viability [5] [%] | cell viability [6] [%] | cell viability [7] [%] | cell viability [8] [%] | cell viability [9] [%] | cell viability [10] [%] | cell viability [11] [%] | cell viability [12] [%] | cell viability [13] [%] | cell viability [14] [%] | cell viability [15] [%] | cell viability [16] [%] | cell viability [17] [%] | cell viability [18] [%] | cell viability [19] [%] | cell viability [20] [%] | cell viability [21] [%] | cell viability [22] [%] | cell viability [23] [%] | cell viability [24] [%] | cell viability [25] [%] | cell viability [26] [%] | cell viability [27] [%] | cell viability [28] [%] | cell viability [29] [%] | cell viability [30] [%] | cell viability [31] [%] | cell viability [32] [%] | cell viability [33] [%]
CNc1nc(Nc2ccc(C(=O)N3CCOCC3)cc2OC)ncc1Cl | 103 | 121 | 119 | 109 | 106 | 114 | 111 | 112 | 99.8 | 106 | 90.9 |  |  |  |  |  |  |  |  |  |  |  |  |  |  |  |  |  |  |  |  |  | 
C[C@@H](Oc1cc(-c2cnn(C3CCNCC3)c2)cnc1N)c1c(Cl)ccc(F)c1Cl | 118 | 116 | 113 | 115 | 131 | 129 | 108 | 107 | 96.3 | 71.8 | 56.2 | 114 | 116 | 107 | 124 | 118 | 119 | 119 | 110 | 83 | 64.8 | 47.4 |  |  |  |  |  |  |  |  |  |  | 
CCC[S+]([O-])c1ccc2[nH]c(NC(=O)OC)nc2c1 (stereo not drawn) | 88.2 | 96.6 | 94.2 | 103 | 101 | 89.9 | 101 | 82 | 93.8 | 71.2 | 15.5 | 94.5 | 91.3 | 94.7 | 87.4 | 84.9 | 88.8 | 81.7 | 76.4 | 81.2 | 58.4 | 19.4 | 102 | 81.8 | 100 | 106 | 98.5 | 109 | 95 | 79.5 | 93.5 | 72.2 | 18.7
COc1ccc(-c2ccc3ncc4c(c3c2)n(-c2ccc(N3CCNCC3)c(C(F)(F)F)c2)c(=O)n4C)cn1 | 105 | 100 | 90.4 | 79.7 | 70 | 54.5 | 49.1 | 32.6 | 32 | 4.07 | 3.17 | 94.5 | 78.3 | 70.9 | 70.5 | 57 | 46.1 | 42.9 | 29.8 | 5.1 | 3.25 | 1.92 | 97.7 | 79.7 | 57.1 | 67 | 51.5 | 45.9 | 47.4 | 24.6 | 4.81 | 3.74 | 2.4
C[C@H](NC(=O)c1sccc1OCc1ccc(Cl)cc1)c1ccccc1 | 85.6 | 83.6 | 72.4 | 82.2 | 94.3 | 77.9 | 83.1 | 78.7 | 77.7 | 81.1 | 77.5 | 91.3 | 83.6 | 77.9 | 90.7 | 82 | 76.2 | 66.8 | 82.6 | 90.8 | 77.7 | 87.8 | 80.8 | 88.2 | 80 | 77.6 | 91.5 | 87.5 | 69.1 | 68.5 | 86.9 | 80.1 | 69
CCc1ccc(CCOc2ccc(CC3SC(=O)NC3=O)cc2)nc1 (stereo not drawn) | 112 | 123 | 129 | 120 | 107 | 112 | 99 | 121 | 106 | 107 | 106 |  |  |  |  |  |  |  |  |  |  |  | 125 | 106 | 119 | 134 | 130 | 113 | 111 | 112 | 96.7 | 114 | 106
CNCCCC12CCC(c3ccccc31)c1ccccc12 | 104 | 94.9 | 92.2 | 97.2 | 95.2 | 84.4 | 85.8 | 98.3 | 79.2 | 80.9 | 60.6 | 94.5 | 87.9 | 88.2 | 106 | 91.6 | 91 | 85.1 | 94 | 76.2 | 74.4 | 38.4 | 106 | 102 | 107 | 110 | 111 | 99.9 | 101 | 90 | 95.2 | 63.5 | 18.3
COc1ccc([C@@H]2CC(=O)c3c(O)cc(O[C@@H]4O[C@H](CO[C@@H]5O[C@@H](C)[C@H](O)[C@@H](O)[C@H]5O)[C@@H](O)[C@H](O)[C@H]4O)cc3O2)cc1O | 120 | 106 | 107 | 114 | 121 | 118 | 117 | 123 | 120 | 119 | 118 | 98.8 | 106 | 115 | 113 | 110 | 96.6 | 115 | 125 | 115 | 101 | 101 | 107 | 117 | 122 | 128 | 116 | 123 | 125 | 118 | 115 | 108 | 103
COCC1(CO)C(=O)C2CCN1CC2 (stereo not drawn) | 91.9 | 95.4 | 102 | 106 | 107 | 104 | 103 | 100 | 111 | 79 | 18.1 | 93.8 | 110 | 94.6 | 98.8 | 115 | 108 | 90.9 | 94.6 | 104 | 94.8 | 50.2 | 116 | 106 | 103 | 123 | 104 | 121 | 92.4 | 130 | 105 | 60.1 | 31.7
